Patent US6068850A, “Aqueous formulations of peptides” (Alza Corporation, priority 1999, dated 2000)
“And” between values parts separate entries of the source, which are not always exact repeats. Identical values can stand only once. Like-named read-outs stand apart in the source and are kept apart here.

Assays:
[1] = Accelerated stability of 30% goserelin at 80° C., purity by RP-HPLC; type: physicochemical; conditions: 30% (w/w) in acetate buffer pH 5.0 with 3% mannitol, glass ampules, after 9 days
[2] = Stability of 40-45% goserelin formulations, one month at 37° C., RP-HPLC; type: physicochemical; conditions: for % PURITY / % CONCENTRATION: 40-45% (w/w); for % CONCENTRATION: patent calls these data inconclusive
Description: (§1) Stability samples were analyzed using RP-HPLC. The area under the curve for the leuprolide peak divided by the sum of the areas under the curve of all peaks gave % purity. […] Formulations of 40-45% (w/w) goserelin in either acetate buffer, with 3% mannitol or acetate buffer with salt (0.9% NaCl) were prepared as described above and placed in polymeric containers. The containers were stored at 37° C. for one month in an incubator. The samples were analyzed using RP-HPLC to determine the chemical stability of the aged formulations.

[3] = Gelation of aqueous peptide formulations on adding polar aprotic solvents such as DMSO; type: physicochemical; conditions: aqueous formulation
Excerpt: Thus, these solvents have an anti-gellant effect.

[4] = type: physicochemical; conditions: for evaporated from reservoir / % Leuprolide at Day 7: 88° C.; for evaporated from reservoir: 7 days
Excerpt: The reservoirs of implantable drug delivery devices (as disclosed in U.S. patent application Ser. No. 08/595,761, incorporated herein by reference) were filled with the appropriate leuprolide acetate solution. The filled devices then underwent stability testing. The formulation was filled into titanium or polymer reservoirs with a polymer plug blocking each end. The filled reservoir was then sealed in a polyfoil bag and placed in a stability testing oven. […] The chromatographic conditions used are listed below. Leuprolide standards (in water) at 4 to 6 different concentration levels, typically between 0.1-1.2 mg/mL, were run along with the stability samples. The stability samples were bracketed by the standard sets, with no more than 40 samples in between the standard sets. All peaks between the void volume and 45 minutes of the run were integrated. The integrated peak areas for the leuprolide standards were plotted as a function of the concentration. The leuprolide concentrations for the stability samples were then calculated using linear regression. The % peak areas for the leuprolide peak, the sum of all the peaks eluting before leuprolide (labeled "others"), and the sum of all the peaks eluting after leuprolide (labeled "aggregates") were also recorded and plotted as a function of the sample timepoints. Formulations of 40% (w/w) leuprolide acetate (equivalent to about 37% leuprolide free base) in either sterile distilled water, ethanol/water (70/30) or water with 10% Tween 20 were prepared as described above and used to fill the reservoirs of implantable drug delivery devices, also as described above. Some reservoirs were made of polymer materials, while some were titanium. The filled devices were subjected to accelerated aging by storing them at elevated temperatures (80-88° C.) for seven days in an incubator (Precision Scientific or Thelco). This is equivalent to about 1.5 years at 37° C. or about four years at room temperature (25° C.), assuming an activation energy (Ea) or 22.2 kcal/mole. The samples were analyzed using RP-HPLC and SEC as described above to determine the chemical and physical stability of the aged formulations.

[5] = Stability of 40% leuprolide acetate formulations after 2.5 megarad gamma irradiation and accelerated aging, RP-HPLC and SEC; type: physicochemical; conditions: for % Leuprolide at Day 7 (RP-HPLC) / SEC Day 0 % dimer/trimer / SEC Day 0 % monomer / SEC Day 7 % dimer/trimer / SEC Day 7 % monomer: 40% in Water
Description: (§2) The chromatographic conditions used are listed below.
Formulations of 40% (w/w) as received leuprolide acetate (equivalent to 37% leuprolide free base) in water were prepared as described above and used to fill the reservoirs of drug delivery devices, also as described above. Some reservoirs were made of polymer materials, while some were titanium.
The filled devices were subjected to 2.5 megarad gamma irradiation. Samples were shipped to Sterigenics (Tustin, Calif.) and gamma irradiated (Cobalt 60) in batch mode. Samples were then subjected to accelerated aging as in Example 1. Samples labeled "cold" were shipped and irradiated on dry ice. Samples were taken at day 0 and day 7, and analyzed using RP-HPLC and SEC as described above to determine the chemical and physical stability of the irradiated formulations.

[6] = Description: as §2
Selected stability samples were analyzed for % peak area and molecular weights using an isocratic solution SEC assay with a refrigerated autosampler (4° C.). The chromatographic conditions used are listed below.
Solutions of 40% leuprolide acetate (w/w) in water were prepared, loaded into reservoirs, stored for two months at 80° C. and analyzed as described above.
Leuprolide acetate solutions (40% (w/w) in water) were prepared, loaded, stored at 37° C., 50° C., 65° C. or 80° C. and analyzed using RP-HPLC as described above.
Solutions of 40% leuprolide acetate (w/w) in water were prepared, loaded into reservoirs, stored at 37° C., 50° C., 65° C. or 80° C. and analyzed using RP-HPLC as described above.

[7] = test system: bacteria; experiment: Bacteriostatic, bactericidal and sporicidal activity of leuprolide formulations; spiking with bacteria; conditions: formulations of 50-400 mg/ml
[8] = 40% in water, nine months at 37° C., RP-HPLC
Description: All stability samples were analyzed for leuprolide concentration and % peak area using a gradient elution reversed-phase HPLC assay with a refrigerated autosampler (4° C.) to minimize sample degradation.

[9] = Stability of 15% nafarelin formulation, one month at 37° C., RP-HPLC; type: physicochemical; conditions: 15% (w/w), Acetate Buffer/Mannitol
Description: as §1, with “15%” for “40-45%”, “nafarelin” for “goserelin”, “in” for “in either”, “buffer” for “buffer,”, “mannitol” for “mannitol or acetate buffer with salt (0.9% NaCl)”

[10] = Acetate Buffer/Salt (0.9% NaCl)
[11] = all Table IV formulations, after irradiation and 7 days accelerated aging
[12] = polymer reservoir, irradiated cold (on dry ice)
[13] = polymer reservoir, not irradiated
[14] = titanium reservoir, not irradiated

With `CC(C)C[C@H](NC(=O)[C@@H](COC(C)(C)C)NC(=O)[C@H](Cc1ccc(O)cc1)NC(=O)[C@H](CO)NC(=O)[C@H](Cc1c[nH]c2ccccc12)NC(=O)[C@H](Cc1cnc[nH]1)NC(=O)[C@@H]1CCC(=O)N1)C(=O)N[C@@H](CCCNC(=N)N)C(=O)N1CCC[C@H]1C(=O)NNC(N)=O` [Goserelin, goserelin] the goserelin remained [1] was “about 65%”, the “% PURITY” value ([2]; Acetate Buffer/Mannitol) was 98.1% and the “% CONCENTRATION” value ([2]; Acetate Buffer/Mannitol) was 54.2%. The “% PURITY” value [2, 10] was 98.0%, the “% CONCENTRATION” value [2, 10] was 50.1% and the “goserelin retained, in each case” value ([2]; both vehicles) was “at least 98%”. For the same compound, the “effect of adding polar aprotic solvents such as DMSO on gelation” value (shortened to “effect”) [3] was “prevents gelation”.

In the case of `CCNC(=O)[C@@H]1CCCN1C(=O)[C@H](CCCNC(=N)N)NC(=O)[C@H](CC(C)C)NC(=O)[C@@H](CC(C)C)NC(=O)[C@H](Cc1ccc(O)cc1)NC(=O)[C@H](CO)NC(=O)[C@H](Cc1c[nH]c2ccccc12)NC(=O)[C@H](Cc1c[nH]cn1)NC(=O)[C@@H]1CCC(=O)N1` [Leuprolide Acetate, leuprolide acetate], the evaporated from reservoir ([4]; polymer reservoir, 40% in EtOH/H2O) is reported as 60%, the evaporated from reservoir ([4]; polymer reservoir, 40% in Water (sample with 66% leuprolide)) is reported as 10% and the “% Leuprolide at Day 7” value ([4]; polymer reservoir, 40% in 10% Tween 20) is reported as 65%. For the same compound, the “% Leuprolide at Day 7” value ([4]; polymer reservoir, 40% in EtOH/H2O (70/30)) was 85%, the “% Leuprolide at Day 7” value ([4]; polymer reservoir, 40% in Water) was 68% and 66% and the “% Leuprolide at Day 7” value ([4]; titanium reservoir, 40% in Water) was 71%. For the same compound, the “leuprolide retained, in each case” value ([4]; all Table III formulations, 7 days at 80-88° C.) was “at least 65%”, the aggregate formation [5, 11] was “low levels of aggregate formation” and the “leuprolide retained, in every case” value [5, 11] was “at least 65%”. The “% Leuprolide at Day 7 (RP-HPLC)” value ([5]; polymer reservoir, irradiated) was 75%, the “SEC Day 0 % dimer/trimer” value ([5]; polymer reservoir, irradiated) was 1.2% and the “SEC Day 0 % monomer” value ([5]; polymer reservoir, irradiated) was 90.4%. For the same compound, the “SEC Day 7 % dimer/trimer” value ([5]; polymer reservoir, irradiated) was 3.9%, the “SEC Day 7 % monomer” value ([5]; polymer reservoir, irradiated) was 80.9% and the “% Leuprolide at Day 7 (RP-HPLC)” value [5, 12] was 79%. For the same compound, the “SEC Day 0 % dimer/trimer” value [5, 12] was 0.2%, the “SEC Day 0 % monomer” value [5, 12] was 89.4% and the “SEC Day 7 % dimer/trimer” value [5, 12] was 3.1%. For the same compound, the “SEC Day 7 % monomer” value [5, 12] was 80.3%, the “% Leuprolide at Day 7 (RP-HPLC)” value [5, 13] was 75% and the “SEC Day 0 % dimer/trimer” value [5, 13] was 0.2%. For the same compound, the “SEC Day 0 % monomer” value [5, 13] was 99.8%, the “SEC Day 7 % dimer/trimer” value [5, 13] was 3.1% and the “SEC Day 7 % monomer” value [5, 13] was 82.4%. For the same compound, the “% Leuprolide at Day 7 (RP-HPLC)” value ([5]; titanium reservoir, irradiated) was 83% and 81% and 73% and 79% and 74%, the “SEC Day 0 % dimer/trimer” value ([5]; titanium reservoir, irradiated) was 1.1% and 0.9% and 0.8% and 0.5% and the “SEC Day 0 % monomer” value ([5]; titanium reservoir, irradiated) was 98.5% and 98.8% and 99.1% and 99% and 98.6%. For the same compound, the “SEC Day 7 % dimer/trimer” value ([5]; titanium reservoir, irradiated) was 2% and 2.4% and 3% and 3.4% and 3.6%, the “SEC Day 7 % monomer” value ([5]; titanium reservoir, irradiated) was 84.9% and 94.7% and 88.3% and 94.3% and 90.9% and the “% Leuprolide at Day 7 (RP-HPLC)” value [5, 14] was 82%. The “SEC Day 0 % dimer/trimer” value [5, 14] was 0%, the “SEC Day 0 % monomer” value [5, 14] was 99.6% and 99.9% and the “SEC Day 7 % dimer/trimer” value [5, 14] was 0% and 1.9%. The “SEC Day 7 % monomer” value [5, 14] was 96.6% and 95%, the chemical degradation [6] was 14.6% and the “activation energy (Ea) of leuprolide loss” value ([6]; 40% (w/w) in water, 37-80° C.) was 22.2 kcal/mol. The Kobs ([6]; 40% (w/w) in water, 37° C.) was 7.24 × 10^-3 months^-1, the t1/2 ([6]; 40% (w/w) in water, 37° C.) was 95.7 months and the t90 ([6]; 40% (w/w) in water, 37° C.) was 13.8 months. For the same compound, the Kobs ([6]; 40% (w/w) in water, 50° C.) was 3.21 × 10^-2 months^-1, the t1/2 ([6]; 40% (w/w) in water, 50° C.) was 21.6 months and the Kobs ([6]; 40% (w/w) in water, 65° C.) was 0.111 months^-1. For the same compound, the t1/2 ([6]; 40% (w/w) in water, 65° C.) was 6.3 months, the Kobs ([6]; 40% (w/w) in water, 80° C.) was 0.655 months^-1 and the t1/2 ([6]; 40% (w/w) in water, 80° C.) was 1.1 months. The physical aggregation ([6]; 40% (w/w) in water, two months at 80° C.) was 5.1%, the leuprolide recovered ([6]; 40% (w/w) in water, two months at 80° C., RP-HPLC) was 81.1% and the “aggregation by SEC (FIG. 2)” value ([6]; 40% in water, two months at 80° C., dimer and trimer only) was “very little aggregation”. For the same compound, the antimicrobial activity [7] was “bacteriostatic, bactericidal and sporicidal activity”, the “stability of samples after spiking with bacteria” value [7] was “unaffected” and the “effect” value [3] was “prevents gelation”. The leuprolide present [8] was 88.3% and the “physical aggregates ("late")” value [8] was 3.5%.

With `CC(C)C[C@H](NC(=O)[C@@H](Cc1ccc2ccccc2c1)NC(=O)[C@H](Cc1ccc(O)cc1)NC(=O)[C@H](CO)NC(=O)[C@H](Cc1c[nH]c2ccccc12)NC(=O)[C@H](Cc1c[nH]cn1)NC(=O)[C@@H]1CCC(=O)N1)C(=O)N[C@@H](CCCNC(=N)N)C(=O)N1CCC[C@H]1C(=O)NCC(N)=O` [Nafarelin, nafarelin] the “% PURITY” value [9] was 98.8%, the nafarelin retained [9] was “at least 98%” and the “% CONCENTRATION” value ([9]; patent calls these data inconclusive) was 18.3%.

In the case of calcitonin, the “effect” value [3] is reported as “prevents gelation”.
